Assays:
[1] = tested on: NY-ESO-1 region consisting of amino acids 100-129; experiment: ELISA with assay OLPs as coating antigens to determine epitopes recognized by induced IgG; format: in vivo, human; settings: accelerating the response, increasing titer, broadening antibody repertoire
Experimental: In these experiments, the epitopes recognized by the NY-ESO-1 specific IgGs that were induced by immunization were determined. ELISAs were carried out, using standard methods, with the assay OLPs supra being used as coating antigens. Antibody titers of subjects were tested at week 16, with the exception of one sample, which was tested at week 13. IgG responses were most frequent and strongest against the NY-ESO-1 region consisting of amino acids 121-150. The NY-ESO-1 region consisting of amino acids 80-109 was also recognized frequently, and in the case of the NY-ESO-1 region consisting of amino acids 100-129, all patients who received the combination of the peptides, Montanide, and polyICLC had relevant antibodies, as did 4/9 of the patients who received the peptides in Montanide only. There was a much lower response to the NY-ESO-1 region consisting of amino acids 142-173. In all cases, polyICLC enhanced the humoral, immune response, not only by accelerating the response and increasing titer, but also by broadening antibody repertoire.

CD4+ T cell lines = experiment: Cytokine production of CD4+ T cell lines by sandwich ELISA; format: in vivo, human
Experimental: Equal amounts of CD4^+ T cell lines created supra, and autologous EBV-B cells (5×10^4) were co-cultured in 250 μl RPMI and 10% FCS. After the EBV-B cells had been pulsed overnight or not with the assay OLPs and cultured for 24 hours, supernatant was harvested, and stored at −20° C. until sandwich ELISAs were carried out using standard methods. The cytokines which were assayed included IFN-γ, GM-CSF, IL-4, IL-9, IL-10, IL-13, IL-17, and TGF-β. These are all known to be produced by different CD4^+ subsets.

polyICLC was tested. Which “effect on humoral immune response” value [1] did it give?
Its value is “enhanced”.

What about the “IL-9 production by T cells following immunization” value (CD4+ T cell lines; in vivo) of the same substance?
Its value is “inhibited completely”.

What about the “level of IL-4” value (CD4+ T cell lines; week 13 and 16) of the same substance?
The value was “significantly suppressed”.

And the “level of IL-9” value (CD4+ T cell lines; week 13 and 16)?
Its value is “significantly suppressed”.

What about the “level of IL-13” value (CD4+ T cell lines; week 13 and 16) of the same substance?
The value was “significantly suppressed”.

What about the IL-9/IL-4 ratio (CD4+ T cell lines; when polyICLC was used) of the same substance?
Its IL-9/IL-4 ratio is “significantly lower”.

Source: US20120328660A1, “IMMUNOGENIC COMPOSITIONS USEFUL IN PROVOKING AN INTEGRATED RESPONSE TO TUMOR ANTIGENS” (priority 2011, published 2012)
